Values quoted from earlier work as cited in publication PMC10288581 (Frontiers in Pharmacology, 2023).

Tests used:
[1] = ref Kristin et al., 2017; cited from earlier work
[2] = system: CYP3A4; design: method as in Elsby et al., 2019; conditions: ref Elsby et al., 2019; read-out: inhibition constant Ki; cited from earlier work
[3] = system: MRP2; design: method as in Vermeer et al., 2016; conditions: in-vitro data; ref Vermeer et al., 2016; cited from earlier work
[4] = system: OATP1B1; design: method as in Müller and Fromm, 2011; Vermeer et al., 2016; conditions: ref Müller and Fromm, 2011; Vermeer et al., 2016; cited from earlier work
[5] = system: OATP 1B3; design: method as in Müller and Fromm, 2011; Vermeer et al., 2016; conditions: ref Müller and Fromm, 2011; Vermeer et al., 2016; cited from earlier work
[6] = system: P-glycoprotein; design: method as in Vermeer et al., 2016; conditions: in-vitro data; ref Vermeer et al., 2016; cited from earlier work
[7] = system: CYP3A4; design: method as in Obach et al., 2006; Galetin et al., 2007; conditions: ref Obach et al., 2006; Galetin et al., 2007; cited from earlier work
[8] = system: 2C9; design: method as in Obach et al., 2006; conditions: in-vitro data; ref Obach et al., 2006; cited from earlier work
[9] = ref Langtry and Brogden, 1997; cited from earlier work
[10] = system: CYP2C19; design: method as in Obach et al., 2006; conditions: in-vitro data; ref Obach et al., 2006; cited from earlier work

In the case of `CC[C@H]1OC(=O)[C@H](C)[C@@H](O[C@H]2C[C@@](C)(OC)[C@@H](O)[C@H](C)O2)[C@H](C)[C@@H](O[C@@H]2O[C@H](C)C[C@H](N(C)C)[C@H]2O)[C@](C)(OC)C[C@@H](C)C(=O)[C@H](C)[C@@H](O)[C@]1(C)O` [clarithromycin, 6-O-Methylerthromycin], the BCS class [1] is listed as “class-II”, the Ki [2] is listed as […] and the IC50 [3] is listed as greater than 50 µM. The IC50 [4] was 5.3 ± 1.3 µM, the IC50 [5] was 14 ± 2 µM and the IC50 [6] was 8.9 ± 0.5 µM. The “potential to inhibit the CYP3A4 at the intestinal level” value [7] was 60%–70, the “inhibitory concentration of 2C9” value [8] was 4% and the protein binding [9] was 42%–72. For the same molecule, the “inhibitory concentration of CYP2C19” value [10] was 11%.
